Results published in ChEMBL document CHEMBL1122029, “N2-(gamma-D-Glutamyl)-meso-2(L),2'(D)-diaminopimelic acid as the minimal prerequisite structure of FK-156: its acyl derivatives with potent immunostimulating activity” (1982).

How the values were obtained:
[1] = organism: Cavia porcellus; test: Ability to induce delayed-type hypersensitivity to egg albumin in Hartley guinea pigs at the dose of 10 ug/site; format: functional; parameters: unit not given beside the values
[2] = organism: Cavia porcellus; test: Ability to induce delayed-type hypersensitivity to egg albumin in Hartley guinea pigs at the dose of 1 ug/site; format: functional
[3] = test system: Mus musculus; test: Phagocytic activity was assessed in a carbon clearance assay in male DDY mice at the dose of 10 mg/kg; format: functional, organism-based; parameters: dose 10 mg/kg
[4] = test system: Mus musculus; test: Phagocytic activity was assessed in a carbon clearance assay in male DDY mice at the dose of 1 mg/kg; format: functional, organism-based; parameters: dose 1 mg/kg
[5] = test system: Mus musculus; test: Antiinfectious effect against Escherichia coli 22 in ICR mice(10) at the dose of 0.1 mg/kg (i.p.) expressed as number of survivals; format: functional; conditions: route intraperitoneal
[6] = test system: Mus musculus; test: Antiinfectious effect against Escherichia coli 22 in ICR mice(10) at the dose of 1 mg/kg (i.p.) expressed as survivals; format: functional; conditions: route intraperitoneal
[7] = Phagocytic activity was assessed in a carbon clearance assay and stimulation index was reported in male DDY mice at the dose of 10 mg/kg; Kt/Kc; format: functional
[8] = Phagocytic activity was assessed in a carbon clearance assay and stimulation index was reported in male DDY mice at the dose of 1 mg/kg; Kt/Kc; format: functional
[9] = test system: Mus musculus; test: Phagocytic activity was assessed in a carbon clearance assay in male DDY mice at the dose of 0.1 mg/kg; format: functional, organism-based; parameters: dose 0.1 mg/kg
[10] = organism: Mus musculus; test: Tumor suppressive activity against meth-A fibrosarcoma in BALB/c mice (10) at the dose of 100 ug/site; format: functional
[11] = test system: Mus musculus; test: Antiinfectious effect against Escherichia coli 22 in ICR mice(10) at the dose of 1 mg/kg (i.p.) expressed as number of survivals; format: functional; conditions: route intraperitoneal
[12] = Phagocytic activity was assessed in a carbon clearance assay and stimulation index was reported in male DDY mice at the dose of 0.1 mg/kg; Kt/Kc; format: functional
[13] = organism: Mus musculus; test: Tumor suppressive activity against meth-A fibrosarcoma in BALB/c mice(9) at the dose of 100 ug/site; format: functional

## NC(CCCC(NC(=O)CCC(N)C(=O)O)C(=O)O)C(=O)O (centres undefined)
[1]
  Skin response: 6.9
[2]
  Skin response: 3.3
[3]
  K: 0.058
[4]
  K: 0.021
[5]
  Survival: 4
[6]
  Survival: 4
[7]
  Ratio: 2.9
[8]
  Ratio: 1.1

## CC(O)C(=O)NC(C)C(=O)NC(CCC(=O)NC(CCCC(N)C(=O)O)C(=O)NCC(=O)O)C(=O)O (centres undefined)
[1]
  Skin response: 10
[2]
  Skin response: 8.2
[4]
  K: 0.038
[9]
  K: 0.029
[10]
  Suppression: 0
[5]
  Survival: 6
[11]
  Survival: 7
[8]
  Ratio: 1.9
[12]
  Ratio: 1.5

## CCCCCCCC(=O)NC(CCC(=O)NC(CCCC(N)C(=O)O)C(=O)O)C(=O)O (centres undefined)
[1]
  Skin response: 3.7
[2]
  Skin response: 8.3
[4]
  K: 0.048
[9]
  K: 0.032
[5]
  Survival: 7
[11]
  Survival: 6
[8]
  Ratio: 2.4
[12]
  Ratio: 1.6

## CCCCCCCCCCCCCCCCCC(=O)NC(CCC(=O)NC(CCCC(N)C(=O)O)C(=O)O)C(=O)O (centres undefined)
[1]
  Skin response: <3.1
[2]
  Skin response: 1.7
[4]
  K: < 0.048
[9]
  K: 0.032
[13]
  Suppression: 9
[5]
  Survival: 7
[11]
  Survival: 8
[8]
  Ratio: 2.4
[12]
  Ratio: 1.6
